Results as given in patent US8044057B2, “Methods for suppressing an immune response or treating a proliferative disorder” (The United States of America as represented by the …, priority 2003, dated 2011).

Assays:
A549 cells = assay: Microarray gene expression analysis in A549 cells; format: cell-based, human; settings: inhibitor 1 hour before L/I for 6 hours
Description: Microarray gene expression analyses have been performed in which A549 cells were incubated without or with LY294002 or wortmannin for 1 hour before the addition of L/I for 6 hours. […] The mRNAs of other kinases that were increased by LY294002 included that encoding CK2α′ (1.8-fold; GenBank accession #M55268). Since CK2 can regulate both G1 and G2/M cell cycle transitions, the effects of LY294002 and LY303511 on CK2 activity were assessed.

recombinant CK2 = target: T1, recombinant CK2 (Homo sapiens, UniProt P68400); assay: Casein kinase 2 activity kit, 32P incorporation into substrate peptide; format: biochemical
T1 construct: purchased Upstate Biotechnology 17-132 (number of the activity kit, not of the enzyme)
T1 sequence (P68400 whole entry): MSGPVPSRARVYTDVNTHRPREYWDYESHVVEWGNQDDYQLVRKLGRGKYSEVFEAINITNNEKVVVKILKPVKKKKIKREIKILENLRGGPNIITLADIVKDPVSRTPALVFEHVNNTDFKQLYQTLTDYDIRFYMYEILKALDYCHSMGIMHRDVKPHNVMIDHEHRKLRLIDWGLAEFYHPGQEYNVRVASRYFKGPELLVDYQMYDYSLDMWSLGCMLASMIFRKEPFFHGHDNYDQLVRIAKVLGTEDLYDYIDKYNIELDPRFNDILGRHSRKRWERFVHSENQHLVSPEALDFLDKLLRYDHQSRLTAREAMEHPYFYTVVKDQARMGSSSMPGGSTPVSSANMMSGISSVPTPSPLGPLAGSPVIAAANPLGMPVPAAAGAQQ
T1 sequence (P67870 2-215 partner limits assumed): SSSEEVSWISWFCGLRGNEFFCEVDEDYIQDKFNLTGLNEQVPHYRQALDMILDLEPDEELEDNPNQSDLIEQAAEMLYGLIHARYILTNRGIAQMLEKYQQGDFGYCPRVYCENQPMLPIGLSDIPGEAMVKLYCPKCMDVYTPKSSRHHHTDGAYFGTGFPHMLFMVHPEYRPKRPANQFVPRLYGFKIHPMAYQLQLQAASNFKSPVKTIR
Description: FIGS. 5A-5B are bar graphs showing that LY303511 inhibits the cell cycle by causing combined G1 and G2/M arrest and that LY303511 inhibits CK2 activity. For the data shown in FIG. 5A, PASM cells were cultured in medium with FBS for 48 hours before the addition of 0-100 μM LY303511 without or with raparnycin, 400 ng/ml, for 24 hours. Cells were then harvested and incubated with propidium iodide for 2 hours before counting using a Becton-Dickson FACSCalibur. Data are the means (±SEM) of percentages of cells in G1, S, or G2/M phase of the cell cycle in three experiments with duplicate assays. *p<0.05 vs. DMSO control, or †p<0.05 vs. 10 μM LY303511, by Student's t—test. FIG. 5B is a bar graph showing that LY303511 or LY294002 inhibits CK2 in vitro. As per the manufacturer (Upstate Biotechnologies), 0 or 100 ng of recombinant CK2 were incubated with CK2 substrate peptide and ^32P-γ-ATP for 10 min with 1% DMSO or inhibitors as indicated. Data are the means of values for samples with inhibitors expressed as percentage of that for control, which was (mean±SEM) 0.2±0.03 pmol phosphate/100 ng protein/10 min. Data are from three experiments performed in duplicate. *p<0.05 by Student's t-test when compared to DMSO control.
One specific assay for casein kinase 2 activity is available commercially as a kit from Upstate Biotechnology (New York). The assay is based on phosphorylation of a specific substrate (CK-2 substrate peptide) using the transfer of the gamma-phosphate of ^32P-ATP by casein kinase 2 during a 10 minute incubation at 30° C. The phosphorylated substrate is then separated from the residual ^32P-ATP using P81 phosphocellulose paper, and quantified by scintillation counting.
Casein kinase 2 (CK2) activity (counts per rninute) was measured using a casein kinase 2 activity kit (Upstate Biotechnology catalogue number 17-132) by incubating recombinant 100 ng CK2, magnesium/ATP cocktail (10 mcCi ^32P-garnma-ATP, 0.675 micromoles MgCl2, 4.5 nmoles ATP), and 10 micromoles peptide substrate (arnino acid sequence RRRDDDSDDD (SEQ ID NO: 1) in 50 mcl assay buffer without or with the indicated concentrations of DMSO (1%), LY294002, LY303511, or rapamycin for 10 minutes at 30° C. Assays were stopped with 20 mcl of 40% trichloroacetic acid, and 25 mcl were spotted on P81 phosphocellulose paper squares before washing 3 times with 0.75% phosphoric acid, and once with acetone. 32P incorporation on the substrate peptide was detected by counting the phosphocellulose squares in 5 ml scintillation fluid using a Packard 100 Tri-Carb liquid scintillation counter.
Measurement of casein kinase 2 (CK2) activity: CK2 activity (counts per minute) was measured using a CK2 activity kit (Upstate, Charlottesville, Va.) by incubating 100 ng of recombinant CK2, rnagnesium/ATP cocktail (10 μCi ^32P-gamma-ATP, 0.675 μmol MgCl2, 4.5 nmol ATP), and 10 μmol peptide substrate (amino acid sequence RRRDDDSDDD) in 50 μl assay buffer (20 mM MOPS, pH 7.2, 5 mM EGTA, 25 mM β-glycerol phosphate, 1 mM sodium orthovanadate, 1 mM dithiothreitol) without or with the indicated concentrations of LY294002, LY303511, wortmannin or rapamycin in 1% DMSO for 10 min at 30° C. Assays were stopped with 20 μl of 40% trichloroacetic acid, and samples (25 μl) of supernatant were applied to P81 phosphocellulose paper squares, which were then washed three times with 0.75% phosphoric acid, and once with acetone. ^32P in the substrate peptide was quantified using a Packard 100 Tri-Carb liquid scintillation counter on phosphocellulose squares in 5 ml of scintillation fluid. Activity is expressed as pmol phosphate incorporated per 10 minutes. CK2 activity measured in the presence of inhibitors was divided by that measured for the DMSO control (=100% control).

## O=c1cc(N2CCOCC2)oc2c(-c3ccccc3)cccc12 [LY294002, 2-(4-morpholinyl)-8-phenyl-4H-1-benzopyran-4-one, reference compound]
A549 cells
  levels of mTOR mRNA: 1.7 fold
  mRNA encoding CK2α′: 1.8 fold
Recombinant CK2; 100 ng recombinant CK2, 10 min at 30° C.
  CK2 activity: concentration-dependent inhibition of CK2 activity
Recombinant CK2; recombinant CK2 in vitro
  CK2 IC50 relative to that for LY303511: one tenth
Recombinant CK2; recombinant CK2 in vitro, read-out: approximate IC50 for CK2
  IC50: ~10 µM
